Read-outs that look alike come from different tables or passages of the source.
How the values were obtained:
[1] = test system: forearm; experiment: Irritation test on forearm / skin; assay type: in vivo, human; conditions: in vivo
Protocol: Zinc acetate was purchased from Pfaltz and Bauer (Waterbury, Connecticut). About 0.5 grams were mixed with several drops of distilled water at room temperature. […] The aqueous mixture was rubbed into an area about 3 cm in diameter on the forearm of […] and caused no irritation. Subsequently, about 0.5 grams of the salt were dissolved in a few drops of distilled water, then 10 ml K-Y Lubricating Jelly (sold by Johnson and Johnson, New Brunswick, N.J.) was added to form a gel mixture containing about 5% zinc acetate (w/v). This commercially available mixture contains purified water, hydroxyethyl-cellulose as a thickening agent, glycerin as a lubricant, glucono-delta-lactate to prevent crystallization, chlorhexidine gluconate as a preservative, and sodium hydroxide to reduce the acidity.

[2] = test system: genitals (both persons, during intercourse); experiment: Irritation test of lubricant during intercourse / human volunteers; assay type: in vivo; conditions: human, in vivo
Excerpt: Subsequently, the gel formulation was applied topically and used as a sexual lubricant during intercourse. Both people wiped off the excess with a tissue after intercourse, but neither person showered or washed off the lubricant until the following day. It caused no irritation to either person.

[3] = cited from earlier work; for ionization rate: in aqueous solution; for Reported pK values: values below 2 refer to release of a single carboxy anion
[4] = test system: several cell lines
[5] = Acidity tests: pH of 5% w/v zinc salt solutions; conditions: for pH of solution (rounded) / pH of solution: 5% w/v in distilled deionized water; for pH of solution: 0.05 subtracted from meter reading, approximately accurate
[6] = test system: male genitals; experiment: Irritation test on male genitals / urethra; conditions: in vivo
Protocol: In all examples, the test subjects were a monogamous married couple, free of genital herpes and all other known sexually transmitted viruses.
The mixture of zinc acetate in K-Y Lubricating Jelly was tested on the male genitals, passively at first and then with active rubbing.
About 0.5 grams were dissolved in several drops of distilled water and tested on the forearm and genitals.

[7] = test system: vagina; experiment: Irritation test in shallow region of the vagina (volunteer); assay type: in vivo, human; conditions: human, in vivo
[8] = test system: genitals (both persons, during intercourse); conditions: cited from earlier work
[9] = test system: H-9 lymphocytes; experiment: Toxicity to lymphocytes; assay type: cell-based; conditions: at the concentrations of interest
Protocol: In a first set of tests, 20 mg of zinc acetate powder (ZnAc, MW 183.4) was mixed in 1 ml RPMI cell culture medium (Whittaker Corp.). This 2% (w/v) salt mixture contained 7 mg/ml elemental Zn. […] Therefore, a small quantity of HCl was added until the mixture became clear; the pH was about 5.5. The Zn concentration was reduced by half (and the pH was raised somewhat) when an equal volume (1 ml) of cell-free high-titer HIV-1 viral stock was added. The zinc/virus mixture was stirred and incubated for 2 hours at 37° C. (i.e., normal body temperature).
Following this first incubation step, the zinc/virus mixtures were diluted at 1:10, 1:30, and 1:100 ratios using culture medium, and aliquots were added to equal volumes of culture media containing H-9 lymphocytes that had been pretreated overnight with 2 μg/ml Polybreen. The lymphocyte mixtures were incubated for three hours at 37° C.; zinc concentrations during this step were 180, 60, and 18 μg/ml for the 1:10, 1:30, and 1:100 dilutions.
A 2 ml aliquot from each dilution was mixed with an equal volume of 3% ZnAc dissolved in sterile distilled water; after mixing, the zinc concentration was 5.3 mg/ml Zn. These mixtures were incubated for 2 hours, then diluted with culture medium at 1:30, 1:100, and 1:1000 to reduce the toxicity of the zinc to lymphocytes. Four ml of lymphocytes were mixed with 4 ml of each zinc/virus mixture. The zinc/virus/cell mixtures were incubated at 37° C. for 3 hours; zinc concentrations were 88, 27, and 2.7 μg/ml in the 30, 100, and 1000 dilutions.

[10] = test system: sperm cells; conditions: undiluted semen; Eliasson 1971, Paz et al 1977; cited from earlier work
[11] = test system: herpes simplex virus (HSV); experiment: Herpes simplex virus plaque assay on CV-1 cells; conditions: in vitro tests
Protocol: The first step of this assay models what happens inside the vaginal cavity. In this part of the assay, the candidate anti-viral agent (such as a zinc salt) was mixed and incubated for a relatively brief period with HIV particles. […] In subsequent tests using herpes viruses (which are much easier to work with than HIV), a range of first-stage incubation times were tested, ranging from 2 hours to only 5 minutes.
Susceptible lymphocyte cells were then added to this mixture, and a second incubation step was carried out for a number of days (20 days or more, when HIV was tested; 3 days, when herpes viruses were tested in plaque assays) to determine whether zinc-treated or untreated viruses would infect the lymphocytes.
After those toxicity tests had been evaluated, the viral inhibition tests were done on CV-1 cells, an immortalized cell line originally from a monkey kidney, which is highly and reliably susceptible to herpes virus infection, and which is widely used in in vitro tests on herpes viruses.
Tests were also carried out using a range of zinc salt concentrations, from 50 mM down to 5 mM, using constant 2 hour incubation periods.

Compound: [Cl-].[Cl-].[Zn+2] [Zinc chloride]
- burning, forearm [1]: immediately caused a burning sensation
- irritation in initial tests [2]: significant irritation
- ionization rate [3]: ~100%

Compound: O=C[O-].O=C[O-].[Zn+2] [Zinc formate]
- Reported pK values: pK1 ([3]; in water): 0.6
- Reported pK values: pK2 ([3]; in water): 0.95

Compound: O=C(O)CO.O=C(O)CO.[Zn] [Zinc glycolate]
- Reported pK values ([3]; in water): 1.92

Compound: CC(O)C(=O)[O-].CC(O)C(=O)[O-].[Zn+2] (stereo not shown) [Zinc lactate]
- irritation during intercourse [2]: no irritation of any sort
- MCC [4]: ~200 mM
- Reported pK values ([3]; in water): 1.86
- pH of solution (rounded) [5]: about 6.2
- pH of solution [5]: 6.16

Compound: CCC(=O)[O-].CCC(=O)[O-].[Zn+2] [Zinc propionate]
- burning and irritation to the skin [1]: substantial amount of burning and irritation to the skin
- irritation, forearm [1]: no irritation
- irritation, male genital skin [6]: no irritation
- irritation, male genitals [6]: did not cause any irritation
- irritation, urethra [6]: substantial irritation
- irritation, vagina [7]: vaginal irritation
- irritation, vagina / female genitals [7]: no irritation
- irritation of gel / genital lubricant formulations [2]: did not cause any irritation
- Reported pK values ([3]; in water): 1.01

Compound: O=S(=O)([O-])[O-].[Zn+2] [Zinc sulfate]
- irritation, forearm [1]: did not cause any irritation
- irritation, male genital skin [6]: did not cause any irritation
- irritation, urethra [6]: did not cause any irritation
- irritation, person, passive test [7]: tingling, burning sensation
- irritation in initial tests [2]: significant irritation
- irritation, human volunteers [2]: no noticeable irritation
- ionization rate [3]: ~100%
- irritation (prior art / known) ([8]; human, in vivo): substantial burning and irritation in most people
- acidity relative to zinc acetate or lactate solution ([5]; 5% solutions): about 4 times
- pH drop relative to zinc acetate or lactate solution ([5]; 5% solutions, from 6.2 to 5.6): 0.6
- pH of solution (rounded) [5]: about 5.6
- pH of solution [5]: 5.58

Compound: [Zn+2] [zinc]
- effect on physical irritation caused by nonoxynol [2]: can actually reduce the physical irritation that is caused by nonoxynol
- toxicity to lymphocytes [9]: toxic to lymphocytes
- effect on sperm respiratory activity and motility [10]: suppresses the respiratory activity and motility of sperm cells

Compound: Zinc butyrate
- Reported pK values ([3]; in water): 1.00

Compound: Zinc gluconate
- irritation, forearm [1]: no irritation
- irritation, male genitals [6]: no irritation
- irritation, vagina / female genitals [7]: no irritation
- abrasion during intercourse [2]: no abrasion was noticeable
- MCC [4]: ~200 mM
- Reported pK values ([3]; in water): 1.70
- anti-viral effect against herpes viruses [11]: clearly effective in preventing infection by herpes viruses

Compound: Zinc glycerate
- Reported pK values ([3]; in water): 1.80

Compound: nonoxynol
- irritation (prior art / known) ([8]; literature or general knowledge): cause irritation in many users

Compound: octoxynol
- irritation (prior art / known) ([8]; human, in vivo): cause irritation in many users

From patent publication US6321750A, “Condom lubricants with zinc salts as anti-viral additives” (priority 1999, dated 2001)
